Among the test systems are SR; SNB-19; MDA-N; ACHN; HOP-62; HCT-116; SF-539; HT-29; SF-268; SK-MEL-2; RXF 393; UACC-257; MCF7; A549; SK-MEL-5; SK-MEL-28; MDA-MB-231; EKVX; NCI-H460; CCRF-CEM.
What all share (assay): DTP human tumour cell line panel, 48 h

Broadly, the GI50 is the concentration that inhibits growth by half.

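In this assay, cells in 96-well plates receive the compound at five concentrations for 48 hours. Endpoints are linearly interpolated between the surrounding concentrations. At the GI50, growth is halved.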 Calls of active or inactive are those of the source. No stated cut-off is given here; in the data, active = GI50 up to about 1.1 µM and inactive = higher.

Turning to `O=C(O)CC1(C(=O)O)CCCCC1`, the GI50 with SR, in the test on SNB-19, in the test on MDA-N, in the test on ACHN, in the test with HOP-62 and in the test on HCT-116 was > 100 µM (inactive) throughout. Also, the GI50 in the test on SF-539, in the test on HT-29, with SF-268, in the test with SK-MEL-2, in the test on RXF 393 and with UACC-257 was > 100 µM (inactive) in each case. Besides, the GI50 in the test with MCF7, in the test on A549, in the test with SK-MEL-5, in the test on SK-MEL-28, with MDA-MB-231 and with EKVX was > 100 µM (inactive) each time. Besides, the GI50 in the test on NCI-H460 and in the test with CCRF-CEM was > 100 µM (inactive) each time.

Consider `CCN1C(NCCO)=NS(=O)(=O)c2ccccc21`, for which the GI50 in the test on SR, in the test on SNB-19, in the test on MDA-N, with ACHN, in the test with HOP-62 and with HCT-116 was > 100 µM (inactive) throughout. Besides, the GI50 with SF-539, in the test on HT-29, in the test with SF-268, with SK-MEL-2, in the test on RXF 393 and in the test on UACC-257 was > 100 µM (inactive) throughout. Further, the GI50 in the test with MCF7, in the test on A549, with SK-MEL-5, in the test on SK-MEL-28, in the test with MDA-MB-231 and in the test on EKVX was > 100 µM (inactive) in each case. For the same molecule, the GI50 in the test on NCI-H460 and with CCRF-CEM was > 100 µM (inactive) each time.

On to `CCOc1ccc(C(=O)/C=C2/Nc3ccccc3N/C2=C/C(=O)c2ccc(OCC)cc2)cc1`, for which the GI50 in the test on SR is 3.43 µM (inactive); in the test with SNB-19, > 100 µM (inactive); in the test on MDA-N, > 100 µM (inactive); with ACHN it was > 100 µM (inactive); in the test with HOP-62, > 100 µM (inactive); in the test with HCT-116, 78.2 µM (inactive). Further, the GI50 in the test on SF-539, in the test on HT-29, in the test on SF-268, with SK-MEL-2, in the test on RXF 393 and in the test on UACC-257 was > 100 µM (inactive) each time. Further, the GI50 in the test with MCF7, in the test on A549, in the test with SK-MEL-5, in the test with SK-MEL-28, with MDA-MB-231 and in the test with EKVX was > 100 µM (inactive) throughout. Besides, the GI50 was 85.3 µM (inactive) in the test on NCI-H460 and 29.7 µM (inactive) in the test with CCRF-CEM.

`N#C/C(N)=C(\C#N)NC(=O)C(=O)N/C(C#N)=C(\N)C#N`: the GI50 is 58.2 µM (inactive) in the test with SR; > 100 µM (inactive) in the test on SNB-19; > 100 µM (inactive) in the test on MDA-N; > 100 µM (inactive) with ACHN; > 100 µM (inactive) in the test with HOP-62; > 100 µM (inactive) in the test with HCT-116. The GI50 with SF-539 is > 100 µM (inactive); in the test on HT-29 it was > 100 µM (inactive); in the test on SF-268 it was > 100 µM (inactive); in the test with SK-MEL-2, > 100 µM (inactive); in the test on RXF 393, 9.38 µM (inactive); with UACC-257, > 100 µM (inactive). Moreover, the GI50 with MCF7, with A549, with SK-MEL-5, in the test on SK-MEL-28, in the test with MDA-MB-231 and with EKVX was > 100 µM (inactive) each time. Also, the GI50 in the test with NCI-H460 was > 100 µM (inactive); in the test with CCRF-CEM, 77.6 µM (inactive).

For `O=C(NC(N1CCN(c2cc3c(cc2F)c(=O)c(C(=O)O)cn3C2CC2)CC1)(C(F)(F)F)C(F)(F)F)c1ccccc1`, the GI50 in the test on SR is 29.8 µM (inactive); with SNB-19 it was 33.9 µM (inactive); with MDA-N, 39.6 µM (inactive); in the test on ACHN it was 35.8 µM (inactive); in the test with HOP-62 it was 38.5 µM (inactive); in the test with HCT-116 it was 34.1 µM (inactive). Moreover, the GI50 with SF-539 is 22 µM (inactive); in the test on HT-29, 24.1 µM (inactive); in the test with SF-268, 40.9 µM (inactive); in the test with SK-MEL-2 it was 34.9 µM (inactive); in the test with RXF 393 it was 46.1 µM (inactive); with UACC-257 it was 26.8 µM (inactive). The GI50 in the test with MCF7 was 29.8 µM (inactive); with A549 it was 39.7 µM (inactive); in the test with SK-MEL-5, 26 µM (inactive); in the test with SK-MEL-28, 55.8 µM (inactive); with MDA-MB-231, 22.2 µM (inactive); in the test with EKVX, 35.6 µM (inactive). The results for the GI50 in the test with NCI-H460 and in the test on CCRF-CEM were 32.1 µM (inactive) and 24.7 µM (inactive), respectively.

Take `c1cc2c(c(NC3=NCCO3)c1)CCC2`: the GI50 with SR was 86.5 µM (inactive); in the test with SNB-19, > 100 µM (inactive); in the test on MDA-N, 84.5 µM (inactive); with ACHN it was > 100 µM (inactive); in the test with HOP-62, > 100 µM (inactive); in the test with HCT-116 it was > 100 µM (inactive). Also, the GI50 in the test on SF-539, in the test on HT-29, in the test on SF-268, with SK-MEL-2, with RXF 393 and in the test on UACC-257 was > 100 µM (inactive) in each case. Besides, the GI50 in the test with MCF7, with A549, in the test with SK-MEL-5, in the test on SK-MEL-28, with MDA-MB-231 and in the test with EKVX was > 100 µM (inactive) in each case. For the same molecule, the GI50 in the test with NCI-H460 and in the test on CCRF-CEM was > 100 µM (inactive) throughout.

With `CN(C)CCn1c(=O)c2ccc3c4c(nn3CCN(C)C)c3cc(N)ccc3n(c1=O)c24`, the GI50 in the test with SR was < 0.0103 µM (active); in the test with SNB-19 it was < 0.0111 µM (active); with MDA-N it was < 0.0239 µM (active); in the test on ACHN, < 0.0161 µM (active); in the test with HOP-62, < 0.01 µM (active); in the test with HCT-116 it was < 0.0145 µM (active). The concentration for 50% growth inhibition (GI50) in the test with SF-539 is 0.0291 µM (active); with HT-29 it was < 0.01 µM (active); in the test with SF-268, < 0.01 µM (active); in the test on SK-MEL-2, < 0.0292 µM (active); with RXF 393, < 0.032 µM (active); with UACC-257 it was 0.118 µM (active). Further, the GI50 with MCF7 was < 0.0207 µM (active); with A549, < 0.01 µM (active); in the test with SK-MEL-5, 0.0516 µM (active); with SK-MEL-28, 0.0646 µM (active); in the test on MDA-MB-231, < 0.0313 µM (active); with EKVX, 0.0507 µM (active). The GI50 in the test with NCI-H460 was < 0.01 µM (active); in the test on CCRF-CEM, < 0.0126 µM (active).

For the origin of these results see ChEMBL document CHEMBL1201862, “PubChem BioAssay data set” (2004).
